Laboratory results: patent EP0292291B1, “Linear and cyclic analogs of alpha-msh fragments with extraordinary potency” (UNIVERSITY PATENTS, INC., priority 1987, dated 1988)
Where two headings read alike, the source gives them in different places. Positions of bridges follow the written chain, without caps; N, C: chain ends. Non-standard residues stand in square brackets, D forms with d. Residues, ends and D or L forms follow the SMILES beside them. Nle = CCCC[C@H](N)C(=O)O; Dab = NCC[C@H](N)C(=O)O

Columns and labels:
Frog (Rana pipiens) Skin [1] = assay type: cell-based
Source text: (§1) Based upon the structural relationship of alpha-MSH (and its analogues and fragments) to its biological potency, using in vitro a frog skin bioassay system, the active site of alpha-MSH appears to be the common active core sequence suitably modified Ac-Met-Glu-His-Phe-Arg-Trp-Gly-NH₂. This fragment (Alpha-MSH₄₋₁₀) has been synthesized and tested for its melanocyte stimulating activity in frog skin and shown to be a weak agonist when compared to the native hormone. The amino acid exchanges in position 5(Glu) and 10(Gly) have not, previous to the making of the present invention, been investigated. […] The following table summarizes some of these studies.
(§2) The biological potencies of alpha-MSH, the linear, and the cyclic analogues were determined by their ability to stimulate melanosome dispersion in vitro in the frog and lizard bioassays. These in vitro assays provide clear cut dose response curves (between 2.5 x 10⁻¹¹ and 4 x 10⁻¹⁰ M) and can detect minimal concentration of alpha-MSH of about 10⁻¹¹ M. The assays are based upon the centrifugal dispersion of melanosomes (melanin granules) within the dendritic processes of integumental dermal melanophores leading to darkening of the skin. All the test solutions were prepared via serial dilutions from a stock solution (10⁻⁴ M). The frogs (Rans pipiens) used in these evaluations were obtained from Kons Scientific, Germantown, WI, and the lizards (Anolis carolinensis) were from the Snake Farm, La Place, LA.

[2] = test system: Lizard (Anolis carolinensis) Skin; assay type: cell-based
Source text: as §1, §2

[3] = test system: Lizard (Anolis carolinensis) Skin; conditions: relative to alpha-MSH = 1.0; earlier studies; cited from earlier work
Frog (Rana pipiens) Skin [4] = conditions: earlier studies, cited from earlier work; for Relative Potency Frog: relative to alpha-MSH = 1.0
[5] = linear analogues, P = prolonged action
[6] = linear analogues, relative to alpha-MSH = 1.0
[7] = cyclic analogues, p = prolonged action
[8] = cyclic analogues, relative to alpha-MSH = 1.0

Compound: CCCC[C@H](NC(=O)[C@H](CO)NC(=O)[C@H](Cc1ccc(O)cc1)NC(=O)[C@H](CO)NC(C)=O)C(=O)N[C@@H](CCC(=O)O)C(=O)N[C@@H](Cc1c[nH]cn1)C(=O)N[C@H](Cc1ccccc1)C(=O)N[C@@H](CCCNC(=N)N)C(=O)N[C@@H](Cc1c[nH]c2ccccc12)C(=O)N[C@@H](CCCCN)C(=O)NCC(=O)N1CCC[C@H]1C(=O)N[C@H](C(N)=O)C(C)C [Analogue 1] (Ac-SYS[Nle]EH[dF]RWKGPV-NH2)
- Residual Activity Frog (Frog (Rana pipiens) Skin [1]; [5]): P(+)
- Biological Potency Frog (Frog (Rana pipiens) Skin [1]; [6]): 6.0
- Residual Activity Lizard [2, 5]: P(-)
- Biological Potency Lizard [2, 6]: 8.0

Compound: CCCC[C@H](NC(=O)[C@H](CO)NC(=O)[C@H](Cc1ccc(O)cc1)NC(=O)[C@H](CO)NC(C)=O)C(=O)N[C@@H](CC(=O)O)C(=O)N[C@@H](Cc1c[nH]cn1)C(=O)N[C@H](Cc1ccccc1)C(=O)N[C@@H](CCCNC(=N)N)C(=O)N[C@@H](Cc1c[nH]c2ccccc12)C(=O)N[C@@H](CCCCN)C(=O)NCC(=O)N1CCC[C@H]1C(=O)N[C@H](C(N)=O)C(C)C [Analogue 2] (Ac-SYS[Nle]DH[dF]RWKGPV-NH2)
- Residual Activity Frog (Frog (Rana pipiens) Skin [1]; [5]): P(+)
- Biological Potency Frog (Frog (Rana pipiens) Skin [1]; [6]): 9.0
- Residual Activity Lizard [2, 5]: P(-)
- Biological Potency Lizard [2, 6]: 8.0

Compound: CCCC[C@H](NC(C)=O)C(=O)N[C@@H](CCC(=O)O)C(=O)N[C@@H](Cc1c[nH]cn1)C(=O)N[C@H](Cc1ccccc1)C(=O)N[C@@H](CCCNC(=N)N)C(=O)N[C@@H](Cc1c[nH]c2ccccc12)C(=O)N[C@@H](CCCCN)C(=O)NCC(=O)N1CCC[C@H]1C(=O)N[C@H](C(N)=O)C(C)C [Analogue 3] (Ac-[Nle]EH[dF]RWKGPV-NH2)
- Residual Activity Frog (Frog (Rana pipiens) Skin [1]; [5]): P(+)
- Biological Potency Frog (Frog (Rana pipiens) Skin [1]; [6]): 0.8
- Residual Activity Lizard [2, 5]: P(+)
- Biological Potency Lizard [2, 6]: 8.0

Compound: CCCC[C@H](NC(C)=O)C(=O)N[C@@H](CC(=O)O)C(=O)N[C@@H](Cc1c[nH]cn1)C(=O)N[C@H](Cc1ccccc1)C(=O)N[C@@H](CCCNC(=N)N)C(=O)N[C@@H](Cc1c[nH]c2ccccc12)C(=O)N[C@@H](CCCCN)C(=O)NCC(=O)N1CCC[C@H]1C(=O)N[C@H](C(N)=O)C(C)C [Analogue 4] (Ac-[Nle]DH[dF]RWKGPV-NH2)
- Residual Activity Frog (Frog (Rana pipiens) Skin [1]; [5]): P(+)
- Biological Potency Frog (Frog (Rana pipiens) Skin [1]; [6]): 1.0
- Residual Activity Lizard [2, 5]: P(+)
- Biological Potency Lizard [2, 6]: 10.0

Compound: CCCC[C@H](NC(C)=O)C(=O)N[C@@H](CC(=O)O)C(=O)N[C@@H](Cc1c[nH]cn1)C(=O)N[C@H](Cc1ccccc1)C(=O)N[C@@H](CCCNC(=N)N)C(=O)N[C@@H](Cc1c[nH]c2ccccc12)C(=O)NCC(N)=O [Analogue 5]
- Residual Activity Frog (Frog (Rana pipiens) Skin [1]; [5]): P(-)
- Biological Potency Frog (Frog (Rana pipiens) Skin [1]; [6]): 0.1
- Residual Activity Lizard [2, 5]: P(-)
- Biological Potency Lizard [2, 6]: 8.0

Compound: CCCC[C@H](NC(C)=O)C(=O)N[C@@H](CCC(=O)O)C(=O)N[C@@H](Cc1c[nH]cn1)C(=O)N[C@H](Cc1ccccc1)C(=O)N[C@@H](CCCNC(=N)N)C(=O)N[C@@H](Cc1c[nH]c2ccccc12)C(=O)N[C@@H](CCCCN)C(N)=O [Analogue 6]
- Residual Activity Frog (Frog (Rana pipiens) Skin [1]; [5]): P(-)
- Biological Potency Frog (Frog (Rana pipiens) Skin [1]; [6]): 0.2
- Residual Activity Lizard [2, 5]: P(-)
- Biological Potency Lizard [2, 6]: 8.0

Compound: CCCC[C@H](NC(C)=O)C(=O)N[C@@H](CC(=O)O)C(=O)N[C@@H](Cc1c[nH]cn1)C(=O)N[C@H](Cc1ccccc1)C(=O)N[C@@H](CCCNC(=N)N)C(=O)N[C@@H](Cc1c[nH]c2ccccc12)C(=O)N[C@@H](CCCCN)C(N)=O [Analogue 7]
- Residual Activity Lizard [2, 5]: P(-)
- Biological Potency Lizard [2, 6]: 8.0

Compound: CCCC[C@H](NC(C)=O)C(=O)N[C@@H](CCC(=O)O)C(=O)N[C@@H](Cc1c[nH]cn1)C(=O)N[C@H](Cc1ccccc1)C(=O)N[C@@H](CCCNC(=N)N)C(=O)N[C@@H](Cc1c[nH]c2ccccc12)C(=O)N[C@@H](CCCN)C(N)=O [Analogue 8]
- Residual Activity Frog (Frog (Rana pipiens) Skin [1]; [5]): P(-)
- Biological Potency Frog (Frog (Rana pipiens) Skin [1]; [6]): 0.6
- Residual Activity Lizard [2, 5]: P(-)
- Biological Potency Lizard [2, 6]: 8.0

Compound: CCCC[C@H](NC(C)=O)C(=O)N[C@@H](CC(=O)O)C(=O)N[C@@H](Cc1c[nH]cn1)C(=O)N[C@H](Cc1ccccc1)C(=O)N[C@@H](CCCNC(=N)N)C(=O)N[C@@H](Cc1c[nH]c2ccccc12)C(=O)N[C@@H](CCCN)C(N)=O [Analogue 9]
- Biological Potency Frog (Frog (Rana pipiens) Skin [1]; [6]): 0.9
- Residual Activity Lizard [2, 5]: P(-)
- Biological Potency Lizard [2, 6]: 10.0

Compound: CCCC[C@H](NC(C)=O)C(=O)N[C@@H](CCC(=O)O)C(=O)N[C@@H](Cc1c[nH]cn1)C(=O)N[C@H](Cc1ccccc1)C(=O)N[C@@H](CCCNC(=N)N)C(=O)N[C@@H](Cc1c[nH]c2ccccc12)C(=O)N[C@@H](CCN)C(N)=O [Analogue 10] (Ac-[Nle]EH[dF]RW[Dab]-NH2)
- Residual Activity Frog (Frog (Rana pipiens) Skin [1]; [5]): P(±)
- Biological Potency Frog (Frog (Rana pipiens) Skin [1]; [6]): 0.9
- Residual Activity Lizard [2, 5]: P(±)
- Biological Potency Lizard [2, 6]: 10.0

Compound: CCCC[C@H](NC(C)=O)C(=O)N[C@@H](CC(=O)O)C(=O)N[C@@H](Cc1c[nH]cn1)C(=O)N[C@H](Cc1ccccc1)C(=O)N[C@@H](CCCNC(=N)N)C(=O)N[C@@H](Cc1c[nH]c2ccccc12)C(=O)N[C@@H](CCN)C(N)=O [Analogue 11]
- Residual Activity Frog (Frog (Rana pipiens) Skin [1]; [5]): P(-)
- Biological Potency Frog (Frog (Rana pipiens) Skin [1]; [6]): 0.9
- Residual Activity Lizard [2, 5]: P(-)
- Biological Potency Lizard [2, 6]: 50.0

Compound: CCCC[C@H](NC(C)=O)C(=O)N[C@@H](CC(=O)O)C(=O)N[C@@H](Cc1c[nH]cn1)C(=O)N[C@H](Cc1ccccc1)C(=O)N[C@@H](CCCNC(=N)N)C(=O)N[C@@H](Cc1c[nH]c2ccccc12)C(=O)N[C@@H](CN)C(N)=O [Analogue 12]
- Residual Activity Frog (Frog (Rana pipiens) Skin [1]; [5]): P(-)
- Biological Potency Frog (Frog (Rana pipiens) Skin [1]; [6]): 0.2
- Residual Activity Lizard [2, 5]: P(-)
- Biological Potency Lizard [2, 6]: 8.0

Compound: CCCC[C@H](NC(C)=O)C(=O)N[C@@H](CCC(=O)O)C(=O)N[C@@H](Cc1c[nH]cn1)C(=O)N[C@@H](Cc1ccccc1)C(=O)N[C@@H](CCCNC(=N)N)C(=O)N[C@@H](Cc1c[nH]c2ccccc12)C(=O)N[C@@H](CCCCN)C(N)=O [Analogue 13]
- Residual Activity Frog (Frog (Rana pipiens) Skin [1]; [5]): P(+)
- Biological Potency Frog (Frog (Rana pipiens) Skin [1]; [6]): 0.001
- Residual Activity Lizard [2, 5]: P(-)
- Biological Potency Lizard [2, 6]: 0.08

Compound: CCCC[C@H](NC(C)=O)C(=O)N[C@@H](CC(=O)O)C(=O)N[C@@H](Cc1c[nH]cn1)C(=O)N[C@@H](Cc1ccccc1)C(=O)N[C@@H](CCCNC(=N)N)C(=O)N[C@@H](Cc1c[nH]c2ccccc12)C(=O)N[C@@H](CCCCN)C(N)=O [Analogue 14]
- Residual Activity Lizard [2, 5]: P(-)
- Biological Potency Lizard [2, 6]: 0.08

Compound: CCCC[C@H](NC(C)=O)C(=O)N[C@H]1CCC(=O)NCCCC[C@@H](C(=O)NCC(=O)N2CCC[C@H]2C(=O)N[C@H](C(N)=O)C(C)C)NC(=O)[C@H](Cc2c[nH]c3ccccc23)NC(=O)[C@H](CCCNC(=N)N)NC(=O)[C@@H](Cc2ccccc2)NC(=O)[C@H](Cc2c[nH]cn2)NC1=O [Analogue 15] (Ac-[Nle]EH[dF]RWKGPV-NH2; lactam 2-7)
- Biological Potency Frog (Frog (Rana pipiens) Skin [1]): 1.0
- Residual Activity Frog (Frog (Rana pipiens) Skin [1]; [7]): p(+)
- Biological Potency Lizard [2]: 6.0
- Residual Activity Lizard [2, 7]: p(+)

Compound: CCCC[C@H](NC(C)=O)C(=O)N[C@H]1CCC(=O)NCCCC[C@@H](C(N)=O)NC(=O)[C@H](Cc2c[nH]c3ccccc23)NC(=O)[C@H](CCCNC(=N)N)NC(=O)[C@@H](Cc2ccccc2)NC(=O)[C@H](Cc2c[nH]cn2)NC1=O [Analogue 16]
- Residual Activity Frog (Frog (Rana pipiens) Skin [1]; [7]): p(+)
- Biological Potency Frog (Frog (Rana pipiens) Skin [1]; [8]): 0.5
- Residual Activity Lizard [2, 7]: p(+)
- Biological Potency Lizard [2, 8]: 9.0

Compound: CCCC[C@H](NC(C)=O)C(=O)N[C@H]1CC(=O)NCCC[C@@H](C(N)=O)NC(=O)[C@H](Cc2c[nH]c3ccccc23)NC(=O)[C@H](CCCNC(=N)N)NC(=O)[C@@H](Cc2ccccc2)NC(=O)[C@H](Cc2c[nH]cn2)NC1=O [Analogue 18]
- Residual Activity Frog (Frog (Rana pipiens) Skin [1]; [7]): p(-)
- Biological Potency Frog (Frog (Rana pipiens) Skin [1]; [8]): 1.0
- Residual Activity Lizard [2, 7]: p(-)
- Biological Potency Lizard [2, 8]: 20.0

Compound: CCCC[C@H](NC(C)=O)C(=O)N[C@H]1CC(=O)NCC[C@@H](C(N)=O)NC(=O)[C@H](Cc2c[nH]c3ccccc23)NC(=O)[C@H](CCCNC(=N)N)NC(=O)[C@@H](Cc2ccccc2)NC(=O)[C@H](Cc2c[nH]cn2)NC1=O [Analogue 19]
- Residual Activity Frog (Frog (Rana pipiens) Skin [1]; [7]): p(-)
- Biological Potency Frog (Frog (Rana pipiens) Skin [1]; [8]): 1.0
- Residual Activity Lizard [2, 7]: p(-)
- Biological Potency Lizard [2, 8]: 5.0

Compound: CCCC[C@H](NC(C)=O)C(=O)N[C@H]1CC(=O)NC[C@@H](C(N)=O)NC(=O)[C@H](Cc2c[nH]c3ccccc23)NC(=O)[C@H](CCCNC(=N)N)NC(=O)[C@@H](Cc2ccccc2)NC(=O)[C@H](Cc2c[nH]cn2)NC1=O [Analogue 20]
- Residual Activity Frog (Frog (Rana pipiens) Skin [1]; [7]): p(-)
- Biological Potency Frog (Frog (Rana pipiens) Skin [1]; [8]): 0.01
- Residual Activity Lizard [2, 7]: p(-)
- Biological Potency Lizard [2, 8]: 5.0

Compound: Ac-Met-Glu-His-Phe-Arg-Trp-Gly-NH₂ [Ac-alpha -MSH₄₋₁₀NH₂]
- Relative Potency Lizard [3]: 0.004
- Relative Potency Frog (Frog (Rana pipiens) Skin [4]): 0.0003
- melanocyte stimulating activity in frog skin (Frog (Rana pipiens) Skin [4]; result in words, compared to the native hormone): weak agonist

Compound: Ac-[Nle⁴,D-Phe⁷]-alpha -MSH₁₋₁₃NH₂
- Relative Potency Lizard [3]: 5.0
- Relative Potency Frog (Frog (Rana pipiens) Skin [4]): 60.0

Compound: Ac-[Nle⁴,D-Phe⁷]-alpha-MSH₄₋₁₀NH₂
- Relative Potency Lizard [3]: 10.0
- Relative Potency Frog (Frog (Rana pipiens) Skin [4]): 0.02

Compound: Ac-[Nle⁴,D-Phe⁷]-alpha-MSH₄₋₁₁NH₂
- Relative Potency Lizard [3]: 8.0
- Relative Potency Frog (Frog (Rana pipiens) Skin [4]): 0.16

Compound: Ac-[Nle⁴]-alpha-MSH₄₋₁₀NH₂
- Relative Potency Lizard [3]: 0.06
- Relative Potency Frog (Frog (Rana pipiens) Skin [4]): 0.002
